Data taken from patent US6878722B2, “Substituted cycloalkyl P1′ hepatitis C virus inhibitors” (Bristol-Myers Squibb Company, priority 2002, dated 2005).

Key:
[1] = system: HCV replicon in Huh7 cells; test: HCV replicon cell-based assay (FRET); conditions: Hepatitis C virus, Huh-7; HCV replicon; read-out: EC50 range
Method in brief: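 Huh7 cells stably carrying a genotype 1b HCV replicon (IRES-neo-EMCV-IRES-NS3-NS5B) were treated with compound for 4 days at 37 °C in 0.5% DMSO final. Lysates containing 10 μM FRET peptide RET S1 were read kinetically at 340/490 nm to give NS3 protease activity, from which EC50 was derived.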

[2] = molecular target: T1, HCV NS3/4A protease complex (BMS strain, genotype 1a) (Hepatitis C virus genotype 1a, UniProt P27958, C1454S); test: Recombinant HCV NS3/4A protease complex FRET peptide assay, BMS strain; format: biochemical; conditions: IC50 range, NS3/4A BMS Strain
T1 construct: DNA encoding the recombinant HCV NS3/4A protease complex (amino acids 1027 to 1711) for these strains; inferred from the pET21b vector and Ni-NTA purification; made in house; host or cells: Escherichia coli BL21 (DE3), pET21b
T1 sequence (P27958 1658-1714, looked up, stated change not applied): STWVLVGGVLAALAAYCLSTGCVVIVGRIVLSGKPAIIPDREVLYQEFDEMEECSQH
T1 sequence (P27958 1027-1657, looked up, stated change not applied): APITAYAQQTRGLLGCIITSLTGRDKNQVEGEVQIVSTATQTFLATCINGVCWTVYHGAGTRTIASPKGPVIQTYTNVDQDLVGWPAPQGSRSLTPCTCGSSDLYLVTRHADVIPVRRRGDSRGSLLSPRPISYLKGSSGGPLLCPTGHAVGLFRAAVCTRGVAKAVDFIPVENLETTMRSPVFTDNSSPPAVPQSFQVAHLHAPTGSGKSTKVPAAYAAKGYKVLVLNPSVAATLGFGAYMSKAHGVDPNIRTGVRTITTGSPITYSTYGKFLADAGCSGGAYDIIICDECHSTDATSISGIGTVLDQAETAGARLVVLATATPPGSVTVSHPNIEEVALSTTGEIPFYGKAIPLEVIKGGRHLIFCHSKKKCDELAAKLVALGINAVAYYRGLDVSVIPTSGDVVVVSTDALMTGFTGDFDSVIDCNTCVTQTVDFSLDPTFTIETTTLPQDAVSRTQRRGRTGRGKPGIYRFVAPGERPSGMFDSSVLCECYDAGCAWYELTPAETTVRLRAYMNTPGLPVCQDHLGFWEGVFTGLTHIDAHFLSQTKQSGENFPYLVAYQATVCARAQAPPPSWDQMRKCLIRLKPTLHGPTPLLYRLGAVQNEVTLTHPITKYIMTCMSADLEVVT
Method in brief: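 Recombinant NS3/4A complex (aa 1027–1711) with C-terminal three-lysine tail, C1711G and C1454S, expressed in E. coli BL21(DE3) and purified by Ni-NTA then Superdex-S200. Inhibition of the complex from each strain measured in vitro by FRET peptide cleavage.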

| SMILES | EC50 [1] | IC50 [2] |
| --- | --- | --- |
| C=C[C@@H]1C[C@]1(NC(=O)[C@@H]1C[C@@H](Oc2cc(-c3ccccc3)nc3cc(OC)ccc23)CN1C(=O)[C@@H](NC(=O)OC(C)(C)C)C(C)C)C(=O)NS(=O)(=O)C1(CCOC)CC1 [Compound 53, {1-[2-{1-[1-(2-Methoxy-ethyl)-cyclopropanesulfonylaminocarbonyl]-2-vinyl-cyclopropylcarbamoyl}-4-(7-methoxy-2-phenyl-quinolin-4-yloxy)-pyrrolidine-1-carbonyl]-2-methyl-propyl}-carbamic acid tert-butyl ester] | < 50 nM | < 50 nM |
| C=C[C@@H]1C[C@]1(NC(=O)[C@@H]1C[C@@H](Oc2cc(-c3ccccc3)nc3cc(OC)ccc23)CN1C(=O)[C@@H](NC(=O)NC(C)(C)C)C(C)(C)C)C(=O)NS(=O)(=O)C1(Cc2ccccc2)CC1 [Compound 62, 1-[2-(3-tert-Butyl-ureido)-3,3-dimethyl-butyryl]-4-(7-methoxy-2-phenyl-quinolin-4-yloxy)-pyrrolidine-2-carboxylic acid [1-(1-benzylcyclopropanesulfonylaminocarbonyl)-2-vinyl-cyclopropyl]-amide] | 50 to 500 nM | < 50 nM |
| C=C[C@@H]1C[C@]1(NC(=O)[C@@H]1C[C@@H](Oc2cc(-c3ccccc3)nc3cc(OC)ccc23)CN1C(=O)[C@@H](NC(=O)OC(C)(C)C)C(C)(C)C)C(=O)NS(=O)(=O)C1(CCCC)CC1 [Compound 30, {1-[2-[1-(1-Butyl-cyclopropanesulfonylaminocarbonyl)-2-vinyl-cyclopropylcarbamoyl]-4-(7-methoxy-2-phenyl-quinolin-4-yloxy)-pyrrolidine-1-carbonyl]-2,2-dimethyl-propyl}-carbamic acid tert-butyl ester] | < 50 nM | < 50 nM |
| C=C[C@@H]1C[C@]1(NC(=O)[C@@H]1C[C@@H](Oc2cc(-c3ccccc3)nc3cc(OC)ccc23)CN1C(=O)[C@@H](NC(=O)OC(C)(C)C)C(C)C)C(=O)NS(=O)(=O)C1(COC)CC1 [Compound 54, {1-[2-[1-(1-Methoxymethyl-cyclopropanesulfonylaminocarbonyl)-2-vinyl-cyclopropylcarbamoyl]-4-(7-methoxy-2-phenyl-quinolin-4-yloxy)-pyrrolidine-1-carbonyl]-2-methyl-propyl]-carbamic acid tert-butyl ester] | < 50 nM | < 50 nM |
| C=C[C@@H]1C[C@]1(NC(=O)[C@@H]1C[C@@H](Oc2cc(-c3ccccc3)nc3cc(OC)ccc23)CN1C(=O)[C@@H](NC(=O)OC(C)(C)C)C(C)(C)C)C(=O)NS(=O)(=O)C1(CC2CCC2)CC1 [Compound 32, {1-[2-[1-(1-Cyclobutylmethyl-cyclopropanesulfonylaminocarbonyl)-2-vinyl-cyclopropylcarbamoyl]-4-(7-methoxy-2-phenyl-quinolin-4-yloxy)-pyrrolidine-1-carbonyl]-2,2-dimethyl-propyl}-carbamic acid tert-butyl ester] | < 50 nM | < 50 nM |
| C=C[C@@H]1C[C@]1(NC(=O)[C@@H]1C[C@@H](Oc2cc(-c3ccccc3)nc3cc(OC)ccc23)CN1C(=O)[C@@H](NC(=O)OC(C)(C)C)C(C)(C)C)C(=O)NS(=O)(=O)C1(Cc2cccnc2)CC1 [Compound 49, (1-{4-(7-Methoxy-2-phenyl-quinolin-4-yloxy)-2-[1-(1-pyridin-3-ylmethyl-cyclopropanesulfonylaminocarbonyl)-2-vinyl-cyclopropylcarbamoyl]-pyrrolidine-1-carbonyl}-2,2-dimethyl-propyl)-carbamic acid tert-butyl] | 50 to 500 nM | < 50 nM |
| C=CC1C[C@]1(NC(=O)[C@@H]1C[C@@H](Oc2cc(-c3ccccc3)nc3cc(OC)ccc23)CN1C(=O)[C@@H](NC(=O)OC(C)(C)C)C(C)(C)C)C(=O)NS(=O)(=O)C1(C2=CCCCC2)CC1 (stereo in doubt) [Compound 3, {1-[2-[1-(1-Cyclohex-1-enyl-cyclopropanesulfonylaminocarbonyl)-2-vinylcyclopropylcarbamoyl]-4-(7-methoxy-2-phenyl-quinolin-4-yloxy)pyrrolidine-1-carbonyl]-2,2-dimethylpropyl}carbamic acid tert-butyl ester] | 50 to 500 nM | 50 to 500 nM |
| C=C[C@@H]1C[C@]1(NC(=O)[C@@H]1C[C@@H](Oc2cc(-c3ccccc3)nc3cc(OC)ccc23)CN1C(=O)[C@@H](NC(=O)Oc1ccc(OC)cc1)C(C)(C)C)C(=O)NS(=O)(=O)C1(Cc2ccccc2)CC1 [Compound 103] | 50 to 500 nM | 50 to 500 nM |
| C=C[C@@H]1C[C@]1(NC(=O)[C@@H]1C[C@@H](Oc2cc(-c3ccccc3)nc3cc(OC)ccc23)CN1C(=O)[C@@H](NC(=O)Oc1cccc(C(F)(F)F)c1)C(C)(C)C)C(=O)NS(=O)(=O)C1(Cc2ccccc2)CC1 [Compound 108] | 500 to 5000 nM | 50 to 500 nM |
| COc1ccc2c(O[C@@H]3C[C@@H](C(=O)NC4(C(=O)NS(=O)(=O)C5([Si](C)(C)C)CC5)CC4)N(C(=O)[C@@H](NC(=O)OC(C)(C)C)C(C)(C)C)C3)cc(-c3ccccc3)nc2c1 [Compound 71] | 500 to 5000 nM | 50 to 500 nM |
| C=CC1C[C@]1(NC(=O)[C@@H]1C[C@@H](Oc2cc(-c3ccccc3)nc3cc(OC)ccc23)CN1C(=O)[C@@H](NC(=O)OC(C)(C)C)C(C)(C)C)C(=O)NS(=O)(=O)C1(CC2CC2)CC1 (some centres unmarked) [Compound 8, {1-[2-[1-(1-Cyclopropylmethyl-cyclopropanesulfonylaminocarbonyl)-2-vinyl-cyclopropylcarbamoyl]-4-(7-methoxy-2-phenyl-quinolin-4-yloxy)-pyrrolidine-1-carbonyl]-2,2-dime-thylpropyl}-carbamic acid tert-butyl ester] | < 50 nM | < 50 nM |
| CCCC1(S(=O)(=O)NC(=O)[C@@]2(NC(=O)[C@@H]3C[C@@H](Oc4cc(-c5ccccc5)nc5cc(OC)ccc45)CN3C(=O)[C@@H](NC(=O)OC(C)(C)C)C(C)(C)C)CC2C2CC2)CC1 (some centres unmarked) [Compound 203] | 50 to 500 nM | < 50 nM |
| C=C[C@@H]1C[C@]1(NC(=O)[C@@H]1C[C@@H](Oc2cc(-c3ccccc3)nc3cc(OC)ccc23)CN1C(=O)[C@@H](NC(=O)OC1CCCC1)C(C)(C)C)C(=O)NS(=O)(=O)C1(Cc2ccccc2)CC1 [Compound 55, {1-[2-[1-(1-Benzyl-cycloprolanesulfonylaminocarbonyl)-2-vinyl-cycloproylcarbamoyl]-4-(7-methoxy-2-phenyl-quinolin-4-yloxy)-pyrrolidine-1-carbonyl]-2,2-dimethyl-propyl}-carbamic acid cyclopentyl ester] | 50 to 500 nM | < 50 nM |
| C=C[C@@H]1C[C@]1(NC(=O)[C@@H]1C[C@@H](Oc2cc(-c3ccccc3)nc3cc(OC)ccc23)CN1C(=O)[C@@H](NC(=O)CC(C)(C)C)C(C)(C)C)C(=O)NS(=O)(=O)C1(Cc2ccccc2)CC1 [Compound 110] | 50 to 500 nM | 50 to 500 nM |
| C=C[C@@H]1C[C@]1(NC(=O)[C@@H]1C[C@@H](Oc2ccnc3cc(Cl)ccc23)CN1C(=O)[C@@H](NC(=O)OC1CCCC1)C(C)(C)C)C(=O)NS(=O)(=O)C1(C)CC1 [Compound 63, (1-{4-(7-Chloro-quinolin-4-yloxy)-2-[1-(1-methyl-cyclopropanesulfonylaminocarbonyl)-2-vinyl-cyclopropylcarbamoyl]-pyrrolidine-1-carbonyl}-2,2-dimethyl-propyl)-carbamic acid cyclopentyl ester] | < 50 nM | < 50 nM |
| C=CC1C[C@]1(NC(=O)[C@@H]1C[C@@H](Oc2cc(-c3ccccc3)nc3cc(OC)ccc23)CN1C(=O)[C@@H](NC(=O)OC(C)(C)C)C(C)(C)C)C(=O)NS(=O)(=O)C1(C(=O)Nc2c(C)noc2C)CC1 (some centres unmarked) [Compound 10, {1-[2-{1-[1-(3,5-Dimethylisoxazol-4-ylcarbamoyl)cyclopropanesul-fonylaminocarbonyl]-2-vinylcyclopropylcarbamoyl}-4-(7-methoxy-2-phenylquinolin-4-yloxy)pyrrolidine-1-carbon-yl]-2,2-dimethylpropyl}carbamicacid tert-butyl ester] | < 50 nM | < 50 nM |
| C=C[C@@H]1C[C@]1(NC(=O)[C@@H]1C[C@@H](Oc2cc(C3CC3)nc3cc(OC)ccc23)CN1C(=O)[C@@H](NC(=O)OC(C)(C)C)C(C)(C)C)C(=O)NS(=O)(=O)C1(CC#CCC)CC1 [Compound 69, (1-{4-(2-Cyclopropyl-7-methoxy-quinolin-4-yloxy)-2-[1-(1-pent-2-ynyl-cyclopropanesulfonylaminocarbonyl)-2-vinyl-cyclopropylcarbamoyl]-pyrrolidine-1-carbonyl}-2,2-dimethyl-propyl)-carbamic acid tert-butyl ester] | < 50 nM | < 50 nM |
| C=C[C@@H]1C[C@]1(NC(=O)[C@@H]1C[C@@H](Oc2cc(-c3ccccc3)nc3cc(OC)ccc23)CN1C(=O)[C@@H](NC(=O)OC(C)(C)C)C(C)(C)C)C(=O)NS(=O)(=O)C1(Cc2ccncc2)CC1 [Compound 47] | < 50 nM | < 50 nM |
| C=C[C@@H]1C[C@]1(NC(=O)[C@@H]1C[C@@H](Oc2cc(-c3ccccc3)nc3cc(OC)ccc23)CN1C(=O)[C@@H](NC(=O)CCOC)C(C)(C)C)C(=O)NS(=O)(=O)C1(Cc2ccccc2)CC1 [Compound 112] | 50 to 500 nM | 50 to 500 nM |
